Measurements: ChEMBL document CHEMBL5537154, “Smart glypican-3-targeting peptide-chlorin e6 conjugates for targeted photodynamic therapy of hepatocellular carcinoma” (Eur J Med Chem, 2024)
Peptide text beside a SMILES is read from it.

Columns and labels:
[1] = Toxicity in BALB/C nude mouse model xenografted with human HepG2 cells assessed as damage in heart at 1 to 2 uM/kg, iv administered every two days for 21 days along with 250 mW/cm2 light irradiation at 660 nm for 10 mins at 1 hr post-compound administration by H and E staining based analysis; format: organism-based; details: in vivo, 505.17 h, dose 1-2 µM/Kg, time 505.166 hrs
[2] = Toxicity in BALB/C nude mouse model xenografted with human HepG2 cells assessed as damage in kidney at 1 to 2 uM/kg, iv administered every two days for 21 days along with 250 mW/cm2 light irradiation at 660 nm for 10 mins at 1 hr post-compound administration by H and E staining based analysis; format: organism-based; details: in vivo, 505.17 h, dose 1-2 µM/Kg, time 505.166 hrs
HepG2 = assay: Induction of apoptosis in human HepG2 cells assessed as early apoptotic cells at 2.5 uM incubated for 24 hrs followed by 10 J/cm2 of light irradiation at 660 nm measured after 24 hrs by Annexin V-FITC/PI staining based flow cytometry relative to control; format: functional; details: time 48 hrs
Huh-7 = assay: Antiproliferative activity against human Huh-7 cells under 10 J/cm2 light irradiation at 660 nm by CCK8 assay; format: functional, cell-based; details: Huh-7, light or radiation study
[3] = Drug distribution in heart of BALB/C nude mouse model xenografted with human HepG2 cells at 1 to 2 uM/kg, iv measured for 1 to 4 hrs by fluorescence imaging analysis; format: ADME, organism-based; details: in vivo, dose lower 1 µM/Kg, time lower 1 hrs, dose upper 2 µM/Kg, time upper 4 hrs

In the case of C=Cc1c(C)c2cc3nc(c(CC(=O)O)c4[nH]c(cc5nc(cc1[nH]2)C(C)=C5CC)c(C)c4C(=O)NCCCC(=O)N[C@@H](CC(=O)O)C(=O)N[C@@H](Cc1cnc[nH]1)C(=O)N[C@@H](CC(C)C)C(=O)N[C@@H](C)C(=O)N[C@@H](CO)C(=O)N[C@@H](CC(C)C)C(=O)N[C@@H](Cc1c[nH]c2ccccc12)C(=O)N[C@@H](Cc1c[nH]c2ccccc12)C(=O)NCC(=O)N[C@H](C(=O)N[C@@H](CCC(=O)O)C(=O)N[C@@H](CC(C)C)C(=O)O)[C@@H](C)O)[C@@H](CCC(=O)O)[C@@H]3C (HELM PEPTIDE1{[C=Cc1c(C)c2cc3nc(c(CC(=O)O)c4[nH]c(cc5nc(cc1[nH]2)C(C)=C5CC)c(C)c4C(=O)[*:2])[C@@H](CCC(=O)O)[C@@H]3C].[O=C(CCCN[*:1])[*:2]].D.H.L.A.S.L.W.W.G.T.E.L}$$$$V2.0), the Activity [1] is reported as “Non-Toxic”, the Activity [2] is reported as “Non-Toxic” and the Activity (HepG2) is reported as 0.1%. The IC50 (Huh-7) was 2400 nM and the Drug uptake [3] was “Not Active”.
